Measurements as given in article PMC4280362 (Biochimie, 2014).

T1: Isovaleryl-CoA dehydrogenase (IVD) (Homo sapiens, UniProt P26440)
T1 sequence (P26440 33-426): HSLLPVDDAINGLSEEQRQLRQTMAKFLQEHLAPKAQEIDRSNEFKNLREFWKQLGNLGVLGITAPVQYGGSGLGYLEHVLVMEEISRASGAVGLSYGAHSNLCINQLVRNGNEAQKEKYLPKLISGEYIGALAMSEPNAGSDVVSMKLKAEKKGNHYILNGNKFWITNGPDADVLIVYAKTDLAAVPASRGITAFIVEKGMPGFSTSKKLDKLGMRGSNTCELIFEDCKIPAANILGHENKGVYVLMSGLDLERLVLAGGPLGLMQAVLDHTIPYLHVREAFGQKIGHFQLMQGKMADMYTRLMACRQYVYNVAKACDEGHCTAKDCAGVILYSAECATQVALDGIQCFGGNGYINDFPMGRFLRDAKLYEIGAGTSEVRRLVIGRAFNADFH

T2: recombinant human isovaleryl-CoA dehydrogenase, CoA-persulfide-free (human, UniProt P26440 33-426)
T2 sequence: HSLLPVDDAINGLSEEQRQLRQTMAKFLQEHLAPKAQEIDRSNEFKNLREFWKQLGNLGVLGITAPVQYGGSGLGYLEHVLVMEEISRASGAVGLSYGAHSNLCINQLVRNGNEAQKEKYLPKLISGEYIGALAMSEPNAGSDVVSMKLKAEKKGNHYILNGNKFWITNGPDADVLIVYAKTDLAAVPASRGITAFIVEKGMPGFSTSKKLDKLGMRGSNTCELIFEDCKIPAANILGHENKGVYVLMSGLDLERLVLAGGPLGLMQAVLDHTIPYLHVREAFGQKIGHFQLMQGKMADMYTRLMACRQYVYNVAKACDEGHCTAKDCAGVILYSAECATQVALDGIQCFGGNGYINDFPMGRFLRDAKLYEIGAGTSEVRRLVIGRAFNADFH


How the values were obtained:
[1] = target: T1, Isovaleryl-CoA dehydrogenase (IVD); assay: anaerobic UV/visible spectral titration; type: binding
[2] = target: T2, recombinant human isovaleryl-CoA …; assay: competitive inhibition of enzyme activity

Row | Molecule | Kd [1] | Ki [2]
1 | CC(C)CC(=O)SCCNC(=O)CCNC(=O)[C@H](O)C(C)(C)COP(=O)(O)OP(=O)(O)OC[C@H]1O[C@@H](n2cnc3c(N)ncnc32)[C@H](O)[C@@H]1OP(=O)(O)O [isovaleryl-CoA] | 0.54 µM | –
2 | RYATLPNIMKAK [ETF docking peptide, ETF βArg191-βLys202] | – | 1500 µM
